In US7442703B2, “Piperidine derivatives useful as CCR5 antagonists” (priority 2001, dated 2008):

test system: HIV-1 luciferase reporter virus in U87-CD4-CCR5 cells; experiment: HIV Replication (luciferase) assay; assay type: cell-based; conditions: Human immunodeficiency virus 1, U87/CD4/CCR5
Method: Luciferase Replication Assay:
Plasmids encoding the full length genome of HIV-1 pNL-4-Luc with the gp120 V-3 loop replaced by the Bgl II fragment of HIV-1 ADA, YU-2 or HxB (ADA-Luc-FL, YU-2-Luc-FL and HxB-Luc-FL) are obtained from Dr. Susan Pontow (Washington University, St. Louis Mo.). Replication-competent luciferase reporter virus stocks are generated by transfection of plasmids into 293T cells using Superfect (Qiagen) or Mirus transfection reagents. Viral stocks are collected 48 hours following transfection and titered for luciferase production on U-87-CCR5 or CXCR4 cells. U87-CD4-CCR5 cells (10^4/well) are plated in 96-well cell culture plates and incubated overnight. Media is removed and replaced with 50 μl of fresh culture media (DMEM, 10% FCS) and 50 μl of compound diluted in culture medium. Cells are incubated with compound at 37° C. for 1 hour. The resultant supernatant is removed and replaced with 20 μl of media containing compound and infected with an equal volume of diluted or undiluted virus stock at 37° C. for 3-4 hours. The cells are washed once with DMEM, and 200 μl of media containing compound is added. The cultures are incubated for 3 days, the cells lysed in luciferase lysis buffer (Promega, Madison, Wis.) and transferred to Immulon plates (Dynex Technologies, Chantilly Va.). An equal volume of luciferase substrate (Promega, Madison Wis.) is added to lysates and the plates read immediately in a Wallac Luminometer. Fifty and ninety percent inhibitory concentrations are determined using GraphPad PRISM software.

Structure (SMILES) | IC50 [nM]
Cc1ncnc(C)c1C(=O)N1CCC(C)(N2CCC(N(c3ccccc3)c3ccc(C(F)(F)F)nc3)CC2)CC1 [Compound 69] | 0.11
CCCN(c1cccc2cccnc12)C1CCN(C2(C)CCN(C(=O)c3c(C)ncnc3C)CC2)CC1 [Compound 110] | 23

same assay, conditions: Human immunodeficiency virus 1, U87/CD4/CCR5, read-out: HIV Replication (luciferase) IC50

Structure (SMILES) | IC50 [nM]
Cc1ncnc(C)c1C(=O)N1CCC(C)(N2CCC(N(c3ccccc3)c3ccccc3F)CC2)CC1 [Compound 104] | 3
Cc1ncnc(C)c1C(=O)N1CCC(C)(N2CCC(N(Cc3ccccc3)c3ccc(F)c(F)c3)CC2)CC1 [Compound 25] | 0.1
Cc1ncnc(C)c1C(=O)N1CCC(C)(N2CCC(N(Cc3ccccc3)c3cccc(C#N)c3)CC2)CC1 [Compound 44] | 0.1
Cc1ncnc(C)c1C(=O)N1CCC(C)(N2CCC(N(Cc3ccccc3)C3CCN(Cc4ccccc4)CC3)CC2)CC1 [Compound 4] | 1.7
Cc1ncnc(C)c1C(=O)N1CCC(C)(N2CCC(N(Cc3ccccc3)c3ccc(C(=O)O)cc3)CC2)CC1 [Compound 60] | 27
Cc1ncnc(C)c1C(=O)N1CCC(C)(N2CCC(N(Cc3ccccc3)c3ccc(F)c(Cl)c3)CC2)CC1 [Compound 27] | 0.1
Cc1ncnc(C)c1C(=O)N1CCC(C)(N2CCC(N(CC3CCCCC3)c3ccccc3)CC2)CC1 [Compound 106] | 1
Cc1ncnc(C)c1C(=O)N1CCC(C)(N2CCC(N(c3ccccc3)c3ccc(I)cc3)CC2)CC1 [Compound 107] | 1
Cc1ncnc(C)c1C(=O)N1CCC(C)(N2CCC(N(CCc3ccccc3)c3ccccc3)CC2)CC1 [Compound 75] | 38
Cc1ncnc(C)c1C(=O)N1CCC(C)(N2CCC(N(c3ccccc3)c3cccc(Br)c3)CC2)CC1 [Compound 87] | 0.1
Cc1cc(N(Cc2ccccc2)C2CCN(C3(C)CCN(C(=O)c4c(C)ncnc4C)CC3)CC2)ccc1Br [Compound 28] | 0.22
Cc1cc(-c2cc[n+]([O-])cc2)cc(C)c1C(=O)N1CCC(C)(N2CCC(N(c3ccccc3)c3ccc(OC(F)(F)F)cc3)CC2)CC1 [Compound 81] | 3
Cc1ncnc(C)c1C(=O)N1CCC(C)(N2CCC(N(c3ccccc3)c3ccccc3)CC2)CC1 [Compound 72] | 0.3
Cc1ncnc(C)c1C(=O)N1CCC(C)(N2CCC(N(Cc3ccccc3)c3ccc(Cl)cc3)CC2)CC1 [Compound 12] | 0.2
Cc1ncnc(C)c1C(=O)N1CCC(C)(N2CCC(N(Cc3ccccc3)c3cccc(C(F)(F)F)c3)CC2)CC1 [Compound 20] | 0.2
Cc1ncnc(C)c1C(=O)N1CCC(C)(N2CCC(N(Cc3ccccc3)C3CCN(S(=O)(=O)c4ccccc4Cl)CC3)CC2)CC1 [Compound 5] | 2.1
Cc1cc(N(c2ccccc2)C2CCN(C3(C)CCN(C(=O)c4c(C)ncnc4C)CC3)CC2)ccc1Br [Compound 30] | 0.26
Cc1ncnc(C)c1C(=O)N1CCC(C)(N2CCC(N(c3ccccc3)c3cccc(F)c3)CC2)CC1 [Compound 93] | 0.21
Cc1ncnc(C)c1C(=O)N1CCC(C)(N2CCC(N(Cc3ccccc3)c3ccccc3)CC2)CC1 [Compound 9] | 3
Cc1cccc(N(c2ccccc2)C2CCN(C3(C)CCN(C(=O)c4c(C)ncnc4C)CC3)CC2)c1 [Compound 96] | 0.3

Structure (SMILES) | IC50 [nM]
Cc1ncnc(C)c1C(=O)N1CCC(C)(N2CCC(N(Cc3ccccc3)c3cccc(C(=O)NC4CC4)c3)CC2)CC1 [Compound 68] | 2
C=CCOC(=O)NCCc1ccc(N(Cc2ccccc2)C2CCN(C3(C)CCN(C(=O)c4c(C)ncnc4C)CC3)CC2)cc1 [Compound 54] | 0.6
Cc1ncnc(C)c1C(=O)N1CCC(C)(N2CCC(N(Cc3ccccc3)c3ccc(C(F)(F)F)cc3)CC2)CC1 [Compound 10] | 0.5
Cc1cc(-c2cc[n+]([O-])cc2)cc(C)c1C(=O)N1CCC(C)(N2CCC(N(c3ccccc3)c3ccc(C(F)(F)F)nc3)CC2)CC1 [Compound 82] | 0.1
Cc1cc(-c2cc[n+]([O-])cc2)cc(C)c1C(=O)N1CCC(C)(N2CCC(N(Cc3ccccn3)c3ccccc3)CC2)CC1 [Compound 84] | 10
CCc1ccc(N(c2ccccc2)C2CCN(C3(C)CCN(C(=O)c4c(C)ncnc4C)CC3)CC2)cc1 [Compound 100] | 0.1
Cc1ncnc(C)c1C(=O)N1CCC(C)(N2CCC(N(Cc3ccccc3)c3cc(Cl)cc(Cl)c3)CC2)CC1 [Compound 32] | 1.7
Cc1ncnc(C)c1C(=O)N1CCC(C)(N2CCC(N(Cc3ccccc3)c3cc(C(F)(F)F)cc(C(F)(F)F)c3)CC2)CC1 [Compound 34] | 10
Cc1ncnc(C)c1C(=O)N1CCC(C)(N2CCC(N(Cc3ccccc3)c3ccc(Cl)c4cccnc34)CC2)CC1 [Compound 51] | 0.32
Cc1ncnc(C)c1C(=O)N1CCC(C)(N2CCC(N(Cc3ccccc3)c3cccc(C(=O)NO)c3)CC2)CC1 [Compound 64] | 4
Cc1ncnc(C)c1C(=O)N1CCC(C)(N2CCC(N(Cc3ccccc3)c3ccc(Cl)c(Cl)c3)CC2)CC1 [Compound 26] | 0.3
Cc1ncnc(C)c1C(=O)N1CCC(C)(N2CCC(N(Cc3ccccc3)C3CCN(S(=O)(=O)c4cccc(Cl)c4)CC3)CC2)CC1 [Compound 1] | 0.1
Cc1ncnc(C)c1C(=O)N1CCC(C)(N2CCC(N(Cc3ccccc3)C3CCN(S(=O)(=O)C4CC4)CC3)CC2)CC1 [Compound 7] | 3
Cc1ncnc(C)c1C(=O)N1CCC(C)(N2CCC(N(Cc3ccccc3)c3cccc(C(=O)Nc4ccccc4)c3)CC2)CC1 [Compound 65] | 2
Cc1ncnc(C)c1C(=O)N1CCC(C)(N2CCC(N(Cc3ccccc3)C3CCN(S(=O)(=O)c4ccc(Cl)cc4)CC3)CC2)CC1 [Compound 6] | 0.9
Cc1ncnc(C)c1C(=O)N1CCC(C)(N2CCC(N(Cc3ccccc3)c3ccc(CCNS(C)(=O)=O)cc3)CC2)CC1 [Compound 47] | 0.05
Cc1ncnc(C)c1C(=O)N1CCC(C)(N2CCC(N(Cc3cccnc3)c3ccccc3)CC2)CC1 [Compound 80] | 2
Cc1cccc(N(Cc2ccccc2)C2CCN(C3(C)CCN(C(=O)c4c(C)ncnc4C)CC3)CC2)c1 [Compound 39] | 0.1
Cc1ncnc(C)c1C(=O)N1CCC(C)(N2CCC(N(Cc3ccccc3)c3ccc(C(C)(C)C)cc3)CC2)CC1 [Compound 21] | 1
Cc1ncnc(C)c1C(=O)N1CCC(C)(N2CCC(N(Cc3ccccc3)c3cccc(F)c3)CC2)CC1 [Compound 31] | 0.44

Structure (SMILES) | IC50 [nM]
Cc1ncnc(C)c1C(=O)N1CCC(C)(N2CCC(N(Cc3ccccc3)c3ccc(C(F)(F)F)nc3)CC2)CC1 [Compound 13] | 0.2
Cc1ncnc(C)c1C(=O)N1CCC(C)(N2CCC(N(c3ccccc3)c3ccc(Oc4ccccc4)cc3)CC2)CC1 [Compound 105] | 5
Cc1ncnc(C)c1C(=O)N1CCC(C)(N2CCC(N(Cc3ccccc3)c3ccc(F)cc3)CC2)CC1 [Compound 14] | 0.1
Cc1ncnc(C)c1C(=O)N1CCC(C)(N2CCC(N(c3ccccc3)c3ccc(Br)cn3)CC2)CC1 [Compound 71] | 0.6
COc1ccc(N(Cc2ccccc2)C2CCN(C3(C)CCN(C(=O)c4c(C)ncnc4C)CC3)CC2)cc1Cl [Compound 29] | 0.1
C=CCOC(=O)c1ccc(N(Cc2ccccc2)C2CCN(C3(C)CCN(C(=O)c4c(C)ncnc4C)CC3)CC2)cc1 [Compound 58] | 2
Cc1ncnc(C)c1C(=O)N1CCC(C)(N2CCC(N(Cc3cccnc3)c3ccc(Br)cc3)CC2)CC1 [Compound 97] | 0.3
Cc1ncnc(C)c1C(=O)N1CCC(C)(N2CCC(N(Cc3ccccc3)c3ccc(Br)c4cccnc34)CC2)CC1 [Compound 52] | 1
COc1ccc(N(c2ccccc2)C2CCN(C3(C)CCN(C(=O)c4c(C)ncnc4C)CC3)CC2)cc1Cl [Compound 91] | 0.12
Cc1ncnc(C)c1C(=O)N1CCC(C)(N2CCC(N(Cc3ccccc3)c3ccc(CCNS(=O)(=O)CC(F)(F)F)cc3)CC2)CC1 [Compound 57] | 0.4
Cc1ncnc(C)c1C(=O)N1CCC(C)(N2CCC(N(Cc3ccccc3)c3cccc(Br)c3)CC2)CC1 [Compound 17] | 0.1
Cc1cc(-c2cc[n+]([O-])cc2)cc(C)c1C(=O)N1CCC(C)(N2CCC(N(Cc3ccccc3)c3ccc(C(F)(F)F)nc3)CC2)CC1 [Compound 16] | 0.5
CCOc1ccc(N(Cc2ccccc2)C2CCN(C3(C)CCN(C(=O)c4c(C)ncnc4C)CC3)CC2)cc1 [Compound 40] | < 0.1
Cc1ncnc(C)c1C(=O)N1CCC(C)(N2CCC(N(c3ccccc3)c3ccc(OC(F)(F)F)cc3)CC2)CC1 [Compound 70] | 1
Cc1ncnc(C)c1C(=O)N1CCC(C)(N2CCC(N(Cc3ccccc3)c3ccc(I)cc3)CC2)CC1 [Compound 23] | 0.1
Cc1ncnc(C)c1C(=O)N1CCC(C)(N2CCC(N(Cc3ccccc3)c3cccc(C(=O)NCc4ccccc4)c3)CC2)CC1 [Compound 66] | 1
Cc1ncnc(C)c1C(=O)N1CCC(C)(N2CCC(N(Cc3ccc(F)cc3)c3cccc(Br)c3)CC2)CC1 [Compound 19] | 0.5
Cc1ncnc(C)c1C(=O)N1CCC(C)(N2CCC(N(Cc3ccccc3)c3cccc(Cl)c3)CC2)CC1 [Compound 18] | 0.1
Cc1ncnc(C)c1C(=O)N1CCC(C)(N2CCC(N(c3ccccc3)c3ccc(C(F)(F)F)cn3)CC2)CC1 [Compound 76] | 0.2
